From patent US4443436A, “C-20-Modified macrolide derivatives of the macrolide antibiotics tylosin, desmycosin, macrocin, and lactenocin” (Eli Lilly and Company, priority 1982, dated 1984) come the findings set out here.

Experiment [1] deals with Staphylococcus aureus X1.1. The experiment in a line: MIC, standard agar-dilution assay, Staphylococcus aureus X1.1. The format is cell-based. To be noted: Staphylococcus aureus, X1.1.
The subject of experiment [2] is Staphylococcus aureus V41. In words: MIC, standard agar-dilution assay, Staphylococcus aureus V41. To be noted: Staphylococcus aureus, V41. The format is cell-based.
For experiment [3], the system named is Staphylococcus aureus X400. The experiment in a line: MIC, standard agar-dilution assay, Staphylococcus aureus X400. The format is cell-based. To be noted: Staphylococcus aureus, X400.
In experiment [4] the test system is Staphylococcus aureus S13E. The experiment in a line: MIC, standard agar-dilution assay, Staphylococcus aureus S13E. It is filed as cell-based. To be noted: Staphylococcus aureus, S13E.
In experiment [5] the test system is Staphylococcus epidermidis EPI1. The experiment in a line: MIC, standard agar-dilution assay, Staphylococcus epidermidis EPI1. The format is cell-based. To be noted: Staphylococcus epidermidis, EPI1.
In experiment [6] the test system is Staphylococcus epidermidis EPI2. The experiment in a line: MIC, standard agar-dilution assay, Staphylococcus epidermidis EPI2. It is filed as cell-based. To be noted: Staphylococcus epidermidis EPI2; agar dilution; read-out: MIC. Background: In agar dilution, organisms are placed on agar that contains the substance at set levels.
Experiment [7] relates to Streptococcus pyogenes C203. The experiment in a line: MIC, standard agar-dilution assay, Streptococcus pyogenes C203. It is filed as cell-based. The note with it: Streptococcus pyogenes, C203.
The subject of experiment [8] is Streptococcus pneumoniae Park I. In words: microbe, parasite or virus in culture. The format is cell-based.
For experiment [9], the system named is Streptococcus Group D X66. The experiment in a line: MIC, standard agar-dilution assay, Streptococcus Group D X66. It is filed as cell-based.
A further experiment relates to Streptococcus Group 9960. The experiment in a line: MIC, standard agar-dilution assay, Streptococcus Group 9960. It is filed as cell-based. The note with it: GROUP9960; Streptococcus Group 9960; agar dilution; read-out: MIC.
Experiment [10] deals with Haemophilus influenzae R252. The experiment in a line: MIC, standard agar-dilution assay, Haemophilus influenzae R252. The format is cell-based. The note with it: Haemophilus influenzae, R252.
In a further experiment the test system is Staphylococcus aureus. In words: MIC, broth-dilution microtiter test, Staphylococcus aureus. It is filed as cell-based. To be noted: broth-dilution microtiter, read-out: MIC. From the text:
(§1) The MIC's in Table X were obtained using conventional broth-dilution microtiter tests.

The next experiment deals with Streptococcus bovis 80. In words: MIC, broth-dilution microtiter test, Streptococcus bovis 80. To be noted: Streptococcus equinus. The format is cell-based.
Source text: as §1

For experiment [11], the system named is Pasteurella multocida 17E. The experiment in a line: MIC, broth-dilution microtiter test, Pasteurella multocida 17E. The format is cell-based. The note with it: Pasteurella multocida, 17E.
Source text: as §1

Experiment [12] has as its system Pasteurella multocida 60A. In words: MIC, broth-dilution microtiter test, Pasteurella multocida 60A. The format is cell-based. The note with it: Pasteurella multocida, 60A.
Source text: as §1

Experiment [13] relates to Pasteurella hemolytica 22C. The experiment in a line: MIC, broth-dilution microtiter test, Pasteurella hemolytica 22C. It is filed as cell-based. The note with it: Pasteurella hemolytica 22C; broth-dilution microtiter; read-out: MIC.
Source text: as §1

A further experiment concerns Mycoplasma gallisepticum. The experiment in a line: MIC, broth-dilution microtiter test, Mycoplasma gallisepticum. It is filed as cell-based. To be noted: Mycoplasmoides gallisepticum; Mycoplasma gallisepticum; broth-dilution microtiter; read-out: MIC.
Source text: as §1

A further experiment concerns Mycoplasma synoviae. The experiment in a line: MIC, broth-dilution microtiter test, Mycoplasma synoviae. It is filed as cell-based. The note with it: Mycoplasmopsis synoviae.
Source text: as §1

Another experiment deals with Mycoplasma hyorhinis. The experiment in a line: MIC, broth-dilution microtiter test, Mycoplasma hyorhinis. The note with it: Mycoplasma hyorhinis; broth-dilution microtiter; read-out: MIC. The format is cell-based.
Source text: as §1

Another experiment concerns Mycoplasma hyopneumoniae. In words: MIC, broth-dilution microtiter test, Mycoplasma hyopneumoniae. It is filed as cell-based. The note with it: Mesomycoplasma hyopneumoniae.
Source text: as §1

For experiment [14], the system named is Streptococcus pyogenes C203. The experiment in a line: In vivo protection of mice experimentally infected with S. pyogenes C203. To be noted: Streptococcus pyogenes, mice, doses given 1 and 4 hours post-infection. As for the experimental part: The C-20 modified derivatives of this invention have shown in vivo antimicrobial activity against experimentally-induced infections in laboratory animals. When two doses of test compound were administered to mice experimentally infected with S. pyogenes C203, the activity observed was measured as an ED50 value [effective dose in mg/kg to protect 50% of the test animals: see Warren Wick, et al., J. Bacteriol. 81, 233-235 (1961)].

The next experiment deals with Pasteurella multocida. In words: Oral (gavage) treatment of Pasteurella multocida-infected chicks. The format is in vivo, one-day-old chicks. As for the experimental part:
Many of the C-20 modified derivatives of this invention have also shown in vivo antibacterial activity against infections induced by gram-negative bacteria. Tables XII and XIII summarize the results of tests in which illustrative compounds were evaluated against Pasteurella infection in one-day-old chicks. The compounds were administered parenterally or orally after challenge of the chicks with Pasteurella multocida (0.1 ml of a 10^-4 dilution of a twenty-hour tryptose broth culture of an avian P. multocida given subcutaneously). In these tests, unless indicated otherwise, all non-medicated infected chicks died within 24 hours of Pasteurella challenge. In the tests summarized in Table XII the compounds were administered by subcutaneous injection at a dosage of 30 mg/kg, 1 and 4 hours post-challenge of the chicks with P. multocida. In the test summarized in Table XIII the compounds were administered by gavage at 1 and 5 hours post-challenge of the chicks with P. multocida.

[15] abbreviates: C203, sc, subcutaneous, read-out: ED50, Subcutaneous.
[16] abbreviates: C203, oral, read-out: ED50, Oral.

In brackets after ≈: the same amount, converted by molar mass. Like-named read-outs stand apart in the source and are kept apart here. A value given as a limit tells only on which side of the number the result lay.

Turning to `CCC1OC(=O)CC(O)C(C)C(OC2OC(C)C(O)C(N(C)C)C2O)C(CCOc2ccc(OC)cc2)CC(C)C(=O)C=CC(C)=CC1COC1OC(C)C(O)C(OC)C1OC` (centres unmarked) [Compound 35, 20-DH-20-O-(p-Methoxyphenyl)desmycosin], the MIC is 0.25 µg/mL (≈ 0.284 µM) in experiment [1]; 0.25 µg/mL (≈ 0.284 µM) in [2]; 0.25 µg/mL (≈ 0.284 µM) in [3]; 0.25 µg/mL (≈ 0.284 µM) in experiment [4]; 0.25 µg/mL (≈ 0.284 µM) in experiment [5]; 0.12 µg/mL (≈ 0.136 µM) in experiment [6]. Moreover, the MIC in [7] was determined as 1 µg/mL (≈ 1.14 µM); in experiment [8] (Streptococcus pneumoniae), 1 µg/mL (≈ 1.14 µM); in [9] it was 4 µg/mL (≈ 4.55 µM); with Streptococcus Group 9960, 8 µg/mL (≈ 9.09 µM); in [10] it was 16 µg/mL (≈ 18.2 µM); in the experiment on Staphylococcus aureus, 0.39 µg/mL (≈ 0.443 µM). Also, the MIC in the experiment with Streptococcus bovis 80 (80) was determined as 1.56 µg/mL (≈ 1.77 µM); in experiment [11] it was 12.5 µg/mL (≈ 14.2 µM); in [12], 12.5 µg/mL (≈ 14.2 µM); in [13], 25 µg/mL (≈ 28.4 µM); in the experiment with Mycoplasma gallisepticum, 0.39 µg/mL (≈ 0.443 µM); in the experiment on Mycoplasma synoviae, 0.78 µg/mL (≈ 0.886 µM). Moreover, the figures for the MIC in the experiment on Mycoplasma hyorhinis and in the experiment with Mycoplasma hyopneumoniae were greater than 50 µg/mL and 6.25 µg/mL (≈ 7.1 µM), respectively. Besides, the values for the ED50 in experiment [14] (setting [15]) and in experiment [14] (setting [16]) were 1.6 mg/kg and 11 mg/kg, respectively. Besides, the results for the “Number of Deaths/Number tested” value in the experiment with Pasteurella multocida (1.5 g/gal equivalent) and in the experiment with Pasteurella multocida (2.0 g/gal equivalent) were 1/10 and 4/10, respectively.
Consider `CCC1OC(=O)CC(O)C(C)C(OC2OC(C)C(O)C(N(C)C)C2O)C(CCSc2ccccc2)CC(C)C(=O)C=CC(C)=CC1COC1OC(C)C(O)C(OC)C1OC` (centres unmarked) [Compound 23, 20-DH-DO-20-(phenylthio)desmycosin], for which the MIC is 0.25 µg/mL (≈ 0.289 µM) in [1]; 0.25 µg/mL (≈ 0.289 µM) in [2]; 0.25 µg/mL (≈ 0.289 µM) in experiment [3]; 0.25 µg/mL (≈ 0.289 µM) in experiment [4]; 0.25 µg/mL (≈ 0.289 µM) in [5]; 0.12 µg/mL (≈ 0.139 µM) in [6]. The MIC is 0.25 µg/mL (≈ 0.289 µM) in experiment [7]; 2 µg/mL (≈ 2.31 µM) in experiment [8] (Streptococcus pneumoniae Park I, agar dilution, read-out: MIC); 8 µg/mL (≈ 9.24 µM) in experiment [9] (Streptococcus Group D X66, agar dilution, read-out: MIC); 16 µg/mL (≈ 18.5 µM) with Streptococcus Group 9960; 0.19 µg/mL (≈ 0.219 µM) in the experiment on Staphylococcus aureus; 6.25 µg/mL (≈ 7.22 µM) with Streptococcus bovis 80 (Streptococcus bovis 80, broth-dilution microtiter, read-out: MIC). Moreover, the MIC in experiment [11] is 12.5 µg/mL (≈ 14.4 µM); in experiment [12], 12.5 µg/mL (≈ 14.4 µM); in experiment [13], 25 µg/mL (≈ 28.9 µM); in the experiment on Mycoplasma gallisepticum it was 0.09 µg/mL (≈ 0.104 µM); with Mycoplasma synoviae (Mycoplasma synoviae, broth-dilution microtiter, read-out: MIC), 6.25 µg/mL (≈ 7.22 µM); with Mycoplasma hyorhinis, greater than 50 µg/mL. In addition, the MIC in the experiment with Mycoplasma hyopneumoniae (Mycoplasma hyopneumoniae, broth-dilution microtiter, read-out: MIC) is greater than 25 µg/mL. Also, the ED50 in experiment [14] (setting [15]) is 10 mg/kg; in [14] (setting [16]), 17 mg/kg. Besides, the “Number of Deaths/Number tested” value is on record as 8/10 in the experiment with Pasteurella multocida (0.5 g/gal equivalent) and 10/10 with Pasteurella multocida (1.0 g/gal equivalent).

A word on the ED50: it is the dose at which the effect has come halfway, by size or by number of responders.
